This note sets out measurements from ChEMBL document CHEMBL5226291, “The race to treat COVID-19: Potential therapeutic agents for the prevention and treatment of SARS-CoV-2” (Eur J Med Chem, 2021).

The test system of series [1] is SARS-CoV-2. The class given is functional, organism-based. Particulars: Severe acute respiratory syndrome coronavirus 2, Vero C1008, 96 h.
Series [2] can be described thus: Cytotoxicity against African green monkey Vero E6 cells by CCK-8 assay. The class given is toxicity, cell-based, Vero C1008. The conditions noted are these: chlorocebus sabaeus. For orientation: Tetrazolium assays rely on reduction of a dye to a coloured formazan, in cell work by metabolically active cells.
A short description of series [3]: Selectivity index. ratio of CC50 for cytotoxicity against human Huh-7 cells to IC50 for antiviral activity against MERS-CoV pseudovirus infected in Huh-7. Particulars: read-out: Ratio CC50/IC50. The class given is toxicity, cell-based.
Series [4] is described as follows: Cytotoxicity against human Huh-7 cells incubated for 3 days by XTT assay. The class given is toxicity, cell-based. The conditions noted are these: time 3 day.
The subject of series [5] is SARS-CoV. The class given is functional, organism-based. Particulars: Severe acute respiratory syndrome-related coronavirus, Vero C1008.
In series [6] the test system is Middle East respiratory syndrome-related coronavirus. Nature of the series: Antiviral activity against recombinant MERS-CoV pseudovirus infected in Huh-7 cells assessed as inhibition of viral replication measured after 72 hrs by luminometer. Particulars: Huh-7, 72 h. The class given is functional, organism-based.
Series [7] relates to SARS-CoV. The class given is functional, organism-based. The conditions noted are these: Severe acute respiratory syndrome-related coronavirus, Vero C1008, 48 h.
The test system of series [8] is Middle East respiratory syndrome-related coronavirus. Put plainly: Antiviral activity against wild type MERS-CoV infected in HEK293T/17 cells assessed as inhibition of viral replication by immunoblotting assay. The class given is functional, organism-based. (Immunoblotting shows a protein as a band on a membrane.)
A short description of series [9]: Cytotoxicity against African green monkey Vero E6 cells by MTT assay. Particulars: chlorocebus sabaeus. The class given is toxicity, cell-based, Vero C1008.
Series [10] in a line: Cytotoxicity against human HEK293T cells by XTT assay. The class given is toxicity, cell-based, HEK-293T.
Series [11] concerns the target Replicase polyprotein 1ab (Severe acute respiratory syndrome coronavirus 2) (UniProt P0DTD1). Put plainly: Inhibition of recombinant SARS-COV2 main protease using Mca-AVLQ-SGFR-Lys-NH2 as substrate at 1 uM by FRET based cleavage assay.
Series [12] in a line: Selectivity index. ratio of CC50 for cytotoxicity against African green monkey Vero E6 cells to EC50 for antiviral activity against wild type SARS-CoV BJ01 infected in Vero E6 cells. The class given is toxicity, cell-based, Vero C1008. Particulars: read-out: Ratio CC50/EC50.
In series [13] the test system is SARS-CoV. The class given is functional, organism-based. The conditions noted are these: Severe acute respiratory syndrome-related coronavirus, BJ01, Vero C1008, 64 h.
Series [14] has as its system SARS-CoV-2. The class given is functional, organism-based. The conditions noted are these: Severe acute respiratory syndrome coronavirus 2, Vero C1008, 48 h.
Series [15] concerns SARS-CoV-2. The class given is functional. The conditions noted are these: Severe acute respiratory syndrome coronavirus 2, Vero C1008; time 18 hrs; read-out: ED50 (the source's name).
Series [16] has as its system Zika virus. Put plainly: Antiviral activity against Zika virus MR766 infected in Vero cells assessed as reduction in viral replication by plaque reduction assay. The class given is functional, organism-based. In general terms: Plaque reduction counts the foci of infection that form in a cell layer.
Series [17] deals with Ebolavirus. The class given is functional, organism-based. Particulars: Orthoebolavirus, Vero C1008, 120 h.
Series [18] concerns SARS-CoV. Put plainly: Antiviral activity against SARS-CoV infected in HEK293T cells assessed as reduction in viral replication incubated for 7 hrs by luciferase assay. The class given is functional, organism-based. Particulars: Severe acute respiratory syndrome-related coronavirus, HEK-293T.
In series [19] the test system is Ebolavirus. Put plainly: Antiviral activity against Ebolavirus infected in HEK293T cells assessed as reduction in viral replication incubated for 7 hrs by luciferase assay. The class given is functional, organism-based. The conditions noted are these: Orthoebolavirus, HEK-293T.
Series [20] concerns the target T1, Procathepsin L (Homo sapiens, UniProt P07711). Nature of the series: Inhibition of human liver Cathepsin L using Z-Phe-Arg-AMC as substrate incubated for 30 mins by fluorometric assay.
The subject of series [21] is SARS-CoV-2. The class given is functional, organism-based. The conditions noted are these: Severe acute respiratory syndrome coronavirus 2, Vero C1008, 48 h. The source holds these as a separate data set.
The test system of series [22] is Middle East respiratory syndrome-related coronavirus. Put plainly: Antiviral activity against recombinant MERS-CoV pseudovirus infected in Vero cells assessed as inhibition of viral replication incubated for 2 days by Dual-Glo luciferase assay. The class given is functional, organism-based. The conditions noted are these: 48 h.
A short description of series [23]: Antiviral activity against Human coronavirus NL63 infected in HEK293T cells expressing human ACE2 assessed as inhibition of viral replication incubated for 2 days by Dual-Glo luciferase assay. The class given is functional, cell-based. Particulars: Human coronavirus NL63, HEK-293T, 48 h.
Series [24] is described as follows: Cytotoxicity against human HEK293T cells. The class given is toxicity, cell-based, HEK-293T.
The subject of series [25] is SARS-CoV. Nature of the series: Antiviral activity against SARS-CoV infected in HEK293 cells expressing human ACE2 assessed as inhibition of viral replication measured after 40 hrs by luciferase assay. The class given is functional, organism-based. Particulars: Severe acute respiratory syndrome-related coronavirus, HEK293, 40 h.
Series [26] relates to SARS-CoV. Nature of the series: Antiviral activity against SARS-CoV infected in HeLa cells expressing human TMPRSS2 assessed as inhibition of viral replication at 10 uM measured after 20 hrs in presence of EST by fluorescence microscopy. The class given is functional. Particulars: Severe acute respiratory syndrome-related coronavirus.
The subject of series [27] is SARS-CoV. Put plainly: Antiviral activity against SARS-CoV infected in HeLa cells expressing human TMPRSS2 assessed as inhibition of viral replication measured after 20 hrs by fluorescence microscopy. The class given is functional, organism-based. The conditions noted are these: Severe acute respiratory syndrome-related coronavirus.
Series [28] deals with SARS-CoV. Nature of the series: Antiviral activity against SARS-CoV infected in HeLa cells expressing human TMPRSS2 assessed as inhibition of viral replication at 100 uM measured after 20 hrs by fluorescence microscopy. Particulars: Severe acute respiratory syndrome-related coronavirus. The class given is functional.
Series [29] deals with Disintegrin and metalloproteinase domain-containing protein 17 (Mus musculus, UniProt Q9Z0F8). Put plainly: Inhibition of mouse ADAM17 expressed in HEK293 cells overexpressed with ACE2 assessed as inhibition of ACE2 shedding incubated for 65 mins in presence of PMA by immunoblotting assay. The class given is cell-based.
Disintegrin and metalloproteinase domain-containing protein 17, sequence (Q9Z0F8 whole entry, the tested form may be a part): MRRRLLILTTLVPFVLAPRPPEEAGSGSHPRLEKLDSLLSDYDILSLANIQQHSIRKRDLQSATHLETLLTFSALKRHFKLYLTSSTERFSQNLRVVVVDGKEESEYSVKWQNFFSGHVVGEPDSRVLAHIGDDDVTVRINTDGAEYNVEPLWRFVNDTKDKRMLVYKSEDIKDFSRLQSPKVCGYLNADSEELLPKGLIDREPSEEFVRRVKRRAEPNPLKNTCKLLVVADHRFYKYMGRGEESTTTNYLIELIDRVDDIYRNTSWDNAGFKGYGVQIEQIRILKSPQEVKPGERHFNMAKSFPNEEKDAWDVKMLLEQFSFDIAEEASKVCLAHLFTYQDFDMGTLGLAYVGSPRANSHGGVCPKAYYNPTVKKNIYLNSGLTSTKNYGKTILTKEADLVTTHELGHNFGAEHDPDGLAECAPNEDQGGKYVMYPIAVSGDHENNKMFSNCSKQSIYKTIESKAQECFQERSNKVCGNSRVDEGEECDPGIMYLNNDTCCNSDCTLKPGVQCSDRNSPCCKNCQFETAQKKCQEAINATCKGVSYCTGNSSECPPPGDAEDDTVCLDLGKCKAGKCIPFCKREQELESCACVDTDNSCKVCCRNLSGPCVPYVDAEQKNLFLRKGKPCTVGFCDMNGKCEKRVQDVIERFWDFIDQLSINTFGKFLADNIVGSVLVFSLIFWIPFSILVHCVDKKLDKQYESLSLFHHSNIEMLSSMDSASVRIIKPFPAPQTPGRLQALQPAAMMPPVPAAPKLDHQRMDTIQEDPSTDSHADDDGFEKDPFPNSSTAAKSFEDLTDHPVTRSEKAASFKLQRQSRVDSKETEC
The test system of series [30] is SARS-CoV. The class given is functional, organism-based. Particulars: Severe acute respiratory syndrome-related coronavirus, HEK-293T, 48 h.
In series [31] the target is T1, Procathepsin L. Put plainly: Inhibition of recombinant Cathepsin L (unknown origin) using Z-Phe-Arg-AMC as substrate by fluorometric assay.
Series [32] deals with Replicase polyprotein 1ab (Severe acute respiratory syndrome coronavirus 2, UniProt P0DTD1). Nature of the series: Inhibition of SARS-COV2 main protease using Mca-AVLQ-SGFR-K as substrate by Fluorescence microplate reader assay.

pEC50, pIC50: −log10 of the molar value. ≈ marks a conversion by molar mass, not a printed value. Square brackets hold non-standard residues; d marks the D form. Peptide text beside a SMILES is read from it. * marks the point of attachment. ξ: configuration not given here. Decanoyl = CCCCCCCCCC(=O)*; ξF = NC(Cc1ccccc1)C(=O)O; Cbz = O=C(OCc1ccccc1)*; CH2Cl = ClC* Some results are limits rather than exact numbers.

T1 sequence (P07711 whole entry): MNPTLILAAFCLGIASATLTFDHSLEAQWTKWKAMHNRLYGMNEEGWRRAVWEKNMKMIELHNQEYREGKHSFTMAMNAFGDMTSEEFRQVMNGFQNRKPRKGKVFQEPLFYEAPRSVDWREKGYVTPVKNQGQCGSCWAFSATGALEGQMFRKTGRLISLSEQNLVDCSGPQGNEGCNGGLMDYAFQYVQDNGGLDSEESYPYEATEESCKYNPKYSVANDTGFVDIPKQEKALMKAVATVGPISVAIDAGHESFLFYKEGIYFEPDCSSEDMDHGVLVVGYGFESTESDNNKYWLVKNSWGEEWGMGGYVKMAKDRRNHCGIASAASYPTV

For the compound `Cc1cc(C(=O)N[C@@H](C)C(=O)N[C@H](C(=O)N[C@@H](CC(C)C)C(=O)N[C@H](/C=C\C(=O)OCc2ccccc2)C[C@@H]2CCNC2=O)C(C)C)no1`, in series [1], the pEC50 was 4.78.

The CC50 is the concentration giving 50% cytotoxicity. The compound `NC(=O)c1ncn([C@@H]2O[C@H](CO)[C@@H](O)[C@H]2O)n1` [RIBAVIRIN] yielded a cytotoxic concentration (CC50) in series [2] of over 400 µM.

In general, pIC50 refers to the negative decadic logarithm of the IC50, by convention in mol/L. Turning to `COc1ccc(S(=O)(=O)O)cc1/N=N/c1c(S(=O)(=O)O)cc2cc(Nc3nc(Nc4ccccc4)nc(Nc4cc(C)c(/N=N/c5cc(S(=O)(=O)O)cc6cc(S(=O)(=O)O)cc(O)c56)cc4OC)n3)ccc2c1O`, in series [3], the selectivity ratio was determined as 45. Also, the midpoint of cytotoxicity in series [4], the CC50 at 72 h, lay at 26.9 µM. Also, the values for the pIC50 in series [5] and in [6] were 5.41 and 6.22, respectively.

`CCC(CC)COC(=O)[C@H](C)N[P@](=O)(OC[C@H]1O[C@@](C#N)(c2ccc3c(N)ncnn23)[C@H](O)[C@@H]1O)Oc1ccccc1`: the pEC50 in series [7] is 7.16.

`CCCCCCCCCC(=O)N[C@@H](CCCNC(=N)N)C(=O)N[C@H](C(=O)N[C@@H](CCCCN)C(=O)N[C@@H](CCCNC(=N)N)C(=O)CCl)C(C)C` (Decanoyl-RVKR-CH2Cl): the pIC50 in [8] is 4.12.

With `O=c1c(O)c(-c2ccc(O)c(O)c2)oc2cc(O)cc(O)c12` [QUERCETIN], in series [9], the midpoint of cytotoxicity, the CC50, lay at 3.32 µM.

`CN1CCN(c2ccc(CNC(=O)c3ccno3)cc2)CC1` displayed a CC50 in series [10] of over 100 µM.

Usually inhibition stands for the relative decrease from the control value, in per cent. In [2], `O=C[C@H](C[C@@H]1CCNC1=O)NC(=O)[C@H](Cc1cccc(F)c1)NC(=O)c1cc2ccccc2[nH]1` had a CC50 of over 100 µM. Besides, in series [11], the inhibition was found to be 86%.

Take `O=C(OC[C@H]1O[C@@H](OC(=O)c2cc(O)c(O)c(O)c2)[C@H](OC(=O)c2cc(O)c(O)c(O)c2)[C@H](OC(=O)c2cc(O)c(O)c(O)c2)[C@@H]1O)c1cc(O)c(O)c(O)c1`: the selectivity ratio in series [12] was determined as 240. This compound also gave a pEC50 in [13] of 5.35. Besides, the cytotoxic concentration (CC50) in series [9] was 1.08 µM.

For the compound `CCN(CC)CCCC(C)Nc1ccnc2cc(Cl)ccc12` (stereo unspecified) [CHLOROQUINE], the CC50 in series [2] is over 100 µM. Further, the pEC50 was 5.95 in [14] and 5.36 in [15].

By EC50 is commonly meant the concentration at which the effect is half-maximal. For the compound `NC(=O)c1nc(F)cnc1O`, the CC50 in series [2] is over 400 µM. Moreover, the EC50 came out at 3.5 mg/L (≈ 22.3 µM) in series [16] and 10.5 mg/L (≈ 66.8 µM) in series [17].

Take `CC(C)(C)OC(=O)N[C@@H](Cc1c[nH]c2ccccc12)C(=O)NNC(=O)OCC(=O)N1CCCc2ccccc21`: the pIC50 in series [18] was 3.56; in series [19], 3.71; in series [20] it was 5.16.

Consider `CCN(CCO)CCCC(C)Nc1ccnc2cc(Cl)ccc12` (stereo unspecified) [HYDROXYCHLOROQUINE], for which, in series [21], the pEC50 is 6.14.

As to `CN1CCN(C(=O)N[C@@H](Cc2ccccc2)C(=O)N[C@H](/C=C/S(=O)(=O)c2ccccc2)CCc2ccccc2)CC1` [K-777], the figures for the pIC50 in series [22] and in series [23] were 7.34 and over 8.15, respectively. Besides, the CC50 in [24] is over 10 µM.

Turning to `O=c1cc(-c2ccc(O)c(O)c2)oc2cc(O)cc(O)c12` [LUTEOLIN], the selectivity ratio in series [12] came to 14.6. The pEC50 in [13] is 4.97. This compound also displayed a CC50 in series [9] of 0.155 µM.

For the compound `CC(C)[C@H](NC(=O)OCc1ccccc1)C(=O)NC(C=O)Cc1ccccc1` (stereo partly drawn) (Cbz-Val-[ξF]-aldehyde), the pEC50 in series [25] was 7.00.

With `CN(C)C(=O)COC(=O)Cc1ccc(OC(=O)c2ccc(NC(=N)N)cc2)cc1` [CAMOSTAT], the inhibition at 10 µM in series [26] is over 95%. The pIC50 in [27] is 5.00. In addition, the inhibition at 100 µM in series [28] was found to be 65%.

As for `CC(C)CC(CC(=O)NO)C(=O)N[C@H](C(=O)N[C@@H](C)C(=O)NCCN)C(C)(C)C` (stereo partly specified), the pIC50 in [29] is 6.70.

Turning to `CC(C)C[C@H](CC(=O)NO)C(=O)N[C@@H](Cc1ccc2ccccc2c1)C(=O)N[C@@H](C)C(N)=O`, the pIC50 in series [29] is 7.00.

In turn, `O=C[C@H](C[C@@H]1CCNC1=O)NC(=O)[C@H](CC1CCCCC1)NC(=O)c1cc2ccccc2[nH]1` yielded a CC50 in series [2] of over 100 µM. Besides, the inhibition in series [11] is 100%.

`C/C(=N\NC(N)=S)c1cccs1`: in [10], the CC50 was under 100 µM. In addition, the pEC50 in series [30] is 5.19. The pIC50 in series [31] was 5.27.

As for `Cc1cccc(C)c1OCC(=O)N[C@@H](Cc1ccccc1)[C@@H](O)C[C@H](Cc1ccccc1)NC(=O)[C@H](C(C)C)N1CCCNC1=O` [LOPINAVIR], the pEC50 in [14] is 4.58.

In turn, `Nc1nc2c(ncn2CCC(CO)CO)c(=O)[nH]1` [PENCICLOVIR] came in with a CC50 in [2] of over 400 µM. Further, in series [7], the pEC50 was 4.02.

Turning to `Cn1sc(=O)n(Cc2ccccc2)c1=O`, the pIC50 in series [32] is 5.60.
